Assay [1] deals with His-tagged human recombinant kinase full-length Akt1 (Homo sapiens (Human), UniProt P31749). Description: Akt1 kinase assay (Akt1 TR-FRET assay). Format: biochemical. The settings on record: 10 μM ATP, 60 min at 22° C., read-out: Akt1 median IC50.
Source text: Biological Assay 1.0: Akt1 Kinase Assay
Akt1 inhibitory activity of compounds of the present invention was quantified employing the Akt1 TR-FRET assay as described in the following paragraphs.
His-tagged human recombinant kinase full-length Akt1 expressed in insect cells was purchased form Invitrogen (part number PV 3599). As substrate for the kinase reaction the biotinylated peptide biotin-Ahx-[sequence] (C-terminus in amide form) was used which can be purchased e.g. from the company Biosynthan GmbH (Berlin-Buch, Germany).
For the assay 50 nl of a 100 fold concentrated solution of the test compound in DMSO was pipetted into a black low volume 384 well microtiter plate (Greiner Bio-One, Frickenhausen, Germany), 2 μl of a solution of Akt1 in assay buffer [50 mM TRIS/HCl pH 7.5, 5 mM MgCl2, 1 mM dithiothreitol, 0.02% (v/v) Triton X-100 (Sigma)] were added and the mixture was incubated for 15 min at 22° C. to allow pre-binding of the test compounds to the enzyme before the start of the kinase reaction. Then the kinase reaction was started by the addition of 3 μl of a solution of adenosine-tri-phosphate (ATP, 16.7 μM=>final conc. in the 5 μl assay volume is 10 μM) and substrate (1.67 μM=>final conc. in the 5 μl assay volume is 1 μM) in assay buffer and the resulting mixture was incubated for a reaction time of 60 min at 22° C. The concentration of Akt1 in the assay was adjusted depending of the activity of the enzyme lot and was chosen appropriate to have the assay in the linear range, typical enzyme concentrations were in the range of about 0.05 ng/μl (final conc. in the 5 μl assay volume). The reaction was stopped by the addition of 5 μl of a solution of HTRF detection reagents (200 nM streptavidine-XL665 [Cisbio] and 1.5 nM anti-phosho-Serine antibody [Millipore, cat. #35-001] and 0.75 nM LANCE Eu-W 1024 labeled anti-mouse IgG antibody [Perkin Elmer]) in an aqueous EDTA-solution (100 mM EDTA, 0.1% (w/v) bovine serum albumin in 50 mM HEPES/NaOH pH 7.5). The resulting mixture was incubated 1 h at 22° C. to allow the binding of the biotinylated phosphorylated peptide to the streptavidine-XL665 and the antibodies. Subsequently the amount of phosphorylated substrate was evaluated by measurement of the resonance energy transfer from the anti-mouse-IgG-Eu-Chelate to the streptavidine-XL665. Therefore, the fluorescence emissions at 620 nm and 665 nm after excitation at 350 nm was measured in a HTRF reader, e.g. a Rubystar (BMG Labtechnologies, Offenburg, Germany) or a Viewlux (Perkin-Elmer). The ratio of the emissions at 665 nm and at 622 nm was taken as the measure for the amount of phosphorylated substrate.
In assay [2] the target is His-tagged human recombinant kinase full-length Akt2 (Homo sapiens (Human), UniProt P31751). Description: Akt2 kinase assay (Akt2 TR-FRET assay). Format: biochemical. The settings on record: 10 μM ATP, 60 min at 22° C., read-out: Akt2 median IC50.
Source text: Akt2 inhibitory activity of compounds of the present invention was quantified employing the Akt2 TR-FRET assay as described in the following paragraphs.
His-tagged human recombinant kinase full-length Akt2 expressed in insect cells and activated by PDK1 was purchased form Invitrogen (part number PV 3975). As substrate for the kinase reaction the biotinylated peptide biotin-Ahx-[sequence] (C-terminus in amide form) was used which can be purchased e.g. from the company Biosynthan GmbH (Berlin-Buch, Germany). For the assay 50 nl of a 100 fold concentrated solution of the test compound in DMSO was pipetted into a black low volume 384 well microtiter plate (Greiner Bio-One, Frickenhausen, Germany), 2 μl of a solution of Akt2 in assay buffer [50 mM TRIS/HCl pH 7.5, 5 mM MgCl2, 1 mM dithiothreitol, 0.02% (v/v) Triton X-100 (Sigma)] were added and the mixture was incubated for 15 min at 22° C. to allow pre-binding of the test compounds to the enzyme before the start of the kinase reaction. Then the kinase reaction was started by the addition of 3 μl of a solution of adenosine-tri-phosphate (ATP, 16.7 μM=>final conc. in the 5 μl assay volume is 10 μM) and substrate (1.67 μM=>final conc. in the 5 μl assay volume is 1 μM) in assay buffer and the resulting mixture was incubated for a reaction time of 60 min at 22° C. The concentration of Akt2 in the assay was adjusted depending of the activity of the enzyme lot and was chosen appropriate to have the assay in the linear range, typical enzyme concentrations were in the range of about 0.2 ng/μl (final conc. in the 5 μl assay volume). The reaction was stopped by the addition of 5 μl of a solution of HTRF detection reagents (200 nM streptavidine-XL665 [Cisbio] and 1.5 nM anti-phosho-Serine antibody [Millipore, cat. #35-001] and 0.75 nM LANCE Eu-W 1024 labeled anti-mouse IgG antibody [Perkin Elmer]) in an aqueous EDTA-solution (100 mM EDTA, 0.1% (w/v) bovine serum albumin in 50 mM HEPES/NaOH pH 7.5). The resulting mixture was incubated 1 h at 22° C. to allow the binding of the biotinylated phosphorylated peptide to the streptavidine-XL665 and the antibodies. Subsequently the amount of phosphorylated substrate was evaluated by measurement of the resonance energy transfer from the anti-mouse-IgG-Eu-Chelate to the streptavidine-XL665. Therefore, the fluorescence emissions at 620 nm and 665 nm after excitation at 350 nm was measured in a TR-FRET reader, e.g. a Rubystar (BMG Labtechnologies, Offenburg, Germany) or a Viewlux (Perkin-Elmer). The ratio of the emissions at 665 nm and at 622 nm was taken as the measure for the amount of phosphorylated substrate.
A further assay concerns phospho-AKT at S473. Description: Cellular p-AKT1/2/3-S473 assay in KPL-4 cells. Format: cell-based. Conditions: Homo sapiens, KPL4; KPL-4 breast tumour cell line, compound treatment 2 hours; read-out: pAKT-S473 median IC50.
The subject of another assay is p-4E-BP1 at T70. As to the kind of experiment: Cellular p-4E-BP1-T70 assay in KPL-4 cells. Format: cell-based. The settings on record: Homo sapiens, KPL4; KPL-4 breast tumour cell line, compound treatment 2 hours; read-out: P4EBP1-T70 median IC50.
In assay [3] the test system is KPL-4 breast cancer cell line. As to the kind of experiment: Tumor cell proliferation assay (CellTiter-Glo), KPL-4. Format: cell-based. Conditions: Homo sapiens, KPL4, 72 h drug exposure, read-out: KLP-4 median IC50.
Procedure: (§1) Biological Assay 4.0: Tumor Cell Proliferation Assays
(§2) Compounds were tested in a cell-based assay that measures the capacity of the compounds to inhibit tumour cell proliferation following a 72 h drug exposure. Cell viability is determined using CellTiter-Glow® (CTG, Promega, cat#G7571/2/3). The CellTiter-Glo® Luminescent Cell Viability Assay is a homogeneous method to determine the number of viable cells in culture.
(§3) Detection is based on using the luciferase reaction to measure the amount of ATP from viable cells. The amount of ATP in cells correlates with cell viability. Within minutes after a loss of membrane integrity, cells lose the ability to synthesize ATP, and endogenous ATPases destroy any remaining ATP; thus the levels of ATP fall precipitously.
(§4) For each cell line assayed, cells were plated onto a separate plate for determination of fluorescence at t=0 hour and t=72 hour time points. Following overnight incubation at 37° C., chemiluminescence values for the t=0 samples were determined after adding 10 μl medium and 100 μl CTG solution according to manufacture protocol. Plates for the t=72 hour time points were treated with compounds diluted into growth medium at ten times final concentration added in 10 μL to the cell culture plate. Cells were then incubated for 72 hours at 37° C. Chemiluminescence values for the t=72 hour samples were determined. […] Experiments were controlled using a reference compound as standard.
Assay [4] concerns MCF-7 breast tumour cell line. Description: Tumor cell proliferation assay (CellTiter-Glo), MCF-7. Format: cell-based. The settings on record: Homo sapiens, MCF7, 72 h drug exposure, read-out: MCF-7 median IC50.
Procedure: as §1, §2, §3, §4

Structures are written as SMILES.

Sequence of His-tagged human recombinant kinase full-length Akt2 (P31751 whole entry): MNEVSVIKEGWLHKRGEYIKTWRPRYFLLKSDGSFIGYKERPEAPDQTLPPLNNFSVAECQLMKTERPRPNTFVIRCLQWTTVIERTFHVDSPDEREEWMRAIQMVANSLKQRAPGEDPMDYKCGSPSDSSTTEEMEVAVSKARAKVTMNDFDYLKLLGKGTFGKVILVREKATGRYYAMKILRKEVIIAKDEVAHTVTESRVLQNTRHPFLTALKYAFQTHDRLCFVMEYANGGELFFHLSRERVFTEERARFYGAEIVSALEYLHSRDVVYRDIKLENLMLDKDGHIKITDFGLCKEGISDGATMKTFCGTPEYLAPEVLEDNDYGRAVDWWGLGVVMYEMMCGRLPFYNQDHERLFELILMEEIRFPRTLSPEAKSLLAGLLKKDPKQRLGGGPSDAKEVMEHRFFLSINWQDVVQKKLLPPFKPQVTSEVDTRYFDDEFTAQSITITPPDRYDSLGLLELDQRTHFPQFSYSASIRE
Sequence of His-tagged human recombinant kinase full-length Akt1 (P31749 whole entry): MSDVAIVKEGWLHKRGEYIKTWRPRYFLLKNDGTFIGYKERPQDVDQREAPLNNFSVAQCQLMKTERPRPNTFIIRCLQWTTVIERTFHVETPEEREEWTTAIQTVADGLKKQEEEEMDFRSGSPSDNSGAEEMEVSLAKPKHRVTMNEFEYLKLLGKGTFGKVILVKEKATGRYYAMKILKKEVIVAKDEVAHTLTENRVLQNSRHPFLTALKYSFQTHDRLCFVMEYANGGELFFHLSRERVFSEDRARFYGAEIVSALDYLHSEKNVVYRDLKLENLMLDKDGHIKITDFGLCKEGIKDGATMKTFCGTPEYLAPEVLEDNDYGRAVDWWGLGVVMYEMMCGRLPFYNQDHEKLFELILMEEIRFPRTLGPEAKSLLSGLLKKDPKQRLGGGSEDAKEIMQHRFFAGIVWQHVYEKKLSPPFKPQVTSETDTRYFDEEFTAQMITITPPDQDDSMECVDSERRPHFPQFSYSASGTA

As to `CC(=O)Nc1ccc2nc(-c3ccc(C4(N)CCC4)cc3)c(-c3ccccc3)n2n1` [Example 37, N-{2-[4-(1-Aminocyclobutyl)phenyl]-3-phenylimidazo[1,2-b]pyridazin-6-yl}acetamide], the half-inhibitory concentration (IC50) in assay [1] stood at 580 nM; in assay [2], 510 nM; in the assay on phospho-AKT at S473 it was 81 nM; in the assay on p-4E-BP1 at T70 it was 2500 nM; in assay [3], 3200 nM; in assay [4], 2000 nM.

Regarding `COC(=O)c1ccc2nc(-c3ccc(C4(N)CCC4)cc3)c(-c3ccccc3)n2n1` [Example 39, Methyl 2-[4-(1-aminocyclobutyl)phenyl]-3-phenylimidazo[1,2-b]pyridazine-6-carboxylate], the half-maximal inhibitory concentration (IC50) was 38 nM in assay [1]; 160 nM in assay [2]; 280 nM in the assay with phospho-AKT at S473; 7500 nM in the assay with p-4E-BP1 at T70; greater than 10000 nM in assay [3]; 6100 nM in assay [4].

On to `NC1(c2ccc(-c3nc4ccc(Br)nn4c3-c3ccccc3)cc2)CCC1` [Example 41, 1-[4-(6-Bromo-3-phenylimidazo[1,2-b]pyridazin-2-yl)phenyl]cyclobutanamine], for which the half-maximal inhibitory concentration (IC50) in assay [1] is 33 nM; in assay [2], 66 nM; with phospho-AKT at S473, greater than 10000 nM; in the assay with p-4E-BP1 at T70 it was greater than 10000 nM; in assay [3], greater than 10000 nM; in assay [4], greater than 10000 nM.

Consider `NC1(c2ccc(-c3nc4c(-c5ccc(F)cc5)cc(-c5ccc(F)cc5)nn4c3-c3ccccc3)cc2)CCC1` [Example 42, 1-{4-[6,8-Bis(4-fluorophenyl)-3-phenylimidazo[1,2-b]pyridazin-2-yl]phenyl}cyclobutanamine], for which the concentration for half-maximal inhibition (IC50) was determined as 20000 nM in assay [1]; 20000 nM in assay [2]; 120 nM in the assay on phospho-AKT at S473; 2600 nM in the assay with p-4E-BP1 at T70; 2800 nM in assay [3]; 4200 nM in assay [4].

For the compound `CS(=O)(=O)Nc1ccc2nc(-c3ccc(C4(N)CCC4)cc3)c(-c3ccccc3)n2n1` [Example 45, N-{2-[4-(1-Aminocyclobutyl)phenyl]-3-phenylimidazo[1,2-b]pyridazin-6-yl} methanesulfonamide], the half-inhibitory concentration (IC50) is 1200 nM in assay [1]; 6600 nM in assay [2]; greater than 10000 nM with phospho-AKT at S473; greater than 10000 nM in the assay on p-4E-BP1 at T70; greater than 10000 nM in assay [3]; greater than 10000 nM in assay [4].

Consider `CC(=O)Nc1ccnn2c(-c3ccccc3)c(-c3ccc(C4(N)CCC4)cc3)nc12` [Example 49, N-{2-[4-(1-Aminocyclobutyl)phenyl]-3-phenylimidazo[1,2-b]pyridazin-8-yl}acetamide], for which the IC50 in assay [1] stood at 68 nM; in assay [2] it was 120 nM; in the assay with phospho-AKT at S473 it was 8 nM; in the assay with p-4E-BP1 at T70 it was 41 nM; in assay [3] it was 140 nM; in assay [4], 610 nM.

For the compound `Cc1c(Cl)nn2c(-c3ccccc3)c(-c3ccc(C4(N)CCC4)cc3)nc2c1C` [Example 50, 1-[4-(6-Chloro-7,8-dimethyl-3-phenylimidazo[1,2-b]pyridazin-2-yl)phenyl]-cyclobutanamine], the IC50 in assay [1] worked out at 44 nM; in assay [2], 27 nM; in the assay on phospho-AKT at S473 it was 450 nM; with p-4E-BP1 at T70, 2000 nM; in assay [3], 1700 nM; in assay [4] it was 1800 nM.

`COC(=O)c1nn2c(-c3ccccc3)c(-c3ccc(C4(N)CCC4)cc3)nc2c(C)c1C` [Example 51, Methyl 2-[4-(1-aminocyclobutyl)phenyl]-7,8-dimethyl-3-phenylimidazo[1,2-b]pyridazine-6-carboxylate]: the 50% inhibitory concentration (IC50) in assay [1] worked out at 42 nM; in assay [2], 81 nM; in the assay on phospho-AKT at S473, 590 nM; with p-4E-BP1 at T70, 1200 nM; in assay [3] it was 7000 nM; in assay [4] it was 1400 nM.

In the case of `Cc1c(C(N)=O)nn2c(-c3ccccc3)c(-c3ccc(C4(N)CCC4)cc3)nc2c1C` [Example 52, 2-[4-(1-Aminocyclobutyl)phenyl]-7,8-dimethyl-3-phenylimidazo[1,2-b]-pyridazine-6-carboxamide], the half-inhibitory concentration (IC50) in assay [1] is 26 nM; in assay [2] it was 15 nM; in the assay on phospho-AKT at S473, 2.1 nM; in the assay on p-4E-BP1 at T70, 9.9 nM; in assay [3], 140 nM; in assay [4] it was 110 nM.

As to `COc1nn2c(-c3ccccc3)c(-c3ccc(C4(N)CCC4)cc3)nc2c(C)c1C` [Example 53, 1-[4-(6-Methoxy-7,8-dimethyl-3-phenylimidazo[1,2-b]pyridazin-2-yl)phenyl]-cyclobutanamine], the IC50 in assay [1] was 9.2 nM; in assay [2], 2.4 nM; in the assay with phospho-AKT at S473, 200 nM; in the assay with p-4E-BP1 at T70, 1000 nM; in assay [3], 1700 nM; in assay [4], 870 nM.

`CSc1nn2c(-c3ccccc3)c(-c3ccc(C4(N)CCC4)cc3)nc2c(C)c1C` [Example 54, 1-{4-[7,8-Dimethyl-6-(methylsulfanyl)-3-phenylimidazo[1,2-b]pyridazin-2-yl]-phenyl}cyclobutanamine]: the IC50 in assay [1] turned out to be 12 nM; in assay [2] it was 35 nM; in the assay with phospho-AKT at S473, 690 nM; in the assay on p-4E-BP1 at T70, 1600 nM; in assay [3], 740 nM; in assay [4], 1800 nM.

With `COC(=O)c1cc(-c2cc[nH]n2)c2nc(-c3ccc(C4(N)CCC4)cc3)c(-c3ccccc3)n2n1` [Example 56, Methyl 2-[4-(1-aminocyclobutyl)phenyl]-3-phenyl-8-(1H-pyrazol-3-yl)-imidazo[1,2-b]pyridazine-6-carboxylate], the IC50 amounted to 6.6 nM in assay [1]; 16 nM in assay [2]; 570 nM in the assay with phospho-AKT at S473; 360 nM in the assay with p-4E-BP1 at T70; 8200 nM in assay [3]; 1100 nM in assay [4].

`CCOc1cc(C(=O)OC)nn2c(-c3ccccc3)c(-c3ccc(C4(N)CCC4)cc3)nc12` [Example 57, Methyl 2-[4-(1-aminocyclobutyl)phenyl]-8-ethoxy-3-phenylimidazo[1,2-b]pyridazine-6-carboxylate]: the IC50 was determined as 25 nM in assay [1]; 29 nM in assay [2]; 250 nM in the assay with phospho-AKT at S473; 1800 nM in the assay with p-4E-BP1 at T70; 9400 nM in assay [3]; 2100 nM in assay [4].

On to `COC(=O)c1cc(-c2ncc[nH]2)c2nc(-c3ccc(C4(N)CCC4)cc3)c(-c3ccccc3)n2n1` [Example 58, Methyl 2-[4-(1-aminocyclobutyl)phenyl]-8-(1H-imidazol-2-yl)-3-phenylimidazo[1,2-b]pyridazine-6-carboxylate], for which the IC50 in assay [1] was 110 nM; in assay [2], 280 nM; in the assay on phospho-AKT at S473 it was 1000 nM; with p-4E-BP1 at T70, 10000 nM; in assay [3], greater than 10000 nM; in assay [4], greater than 10000 nM.

Regarding `CCOc1cc(C(N)=O)nn2c(-c3ccccc3)c(-c3ccc(C4(N)CCC4)cc3)nc12` [Example 61, 2-[4-(1-Aminocyclobutyl)phenyl]-8-ethoxy-3-phenylimidazo[1,2-b]pyridazine-6-carboxamide], the IC50 was found to be 4.1 nM in assay [1]; 3.7 nM in assay [2]; 0.5 nM in the assay with phospho-AKT at S473; 2 nM with p-4E-BP1 at T70; 33 nM in assay [3]; 56 nM in assay [4].

For the compound `CNC(=O)c1ccnn2c(-c3ccccc3)c(-c3ccc(C4(N)CCC4)cc3)nc12` [Example 63, 2-[4-(1-Aminocyclobutyl)phenyl]-N-methyl-3-phenylimidazo[1,2-b]pyridazine-8-carboxamide], the IC50 in assay [1] was found to be 46 nM; in assay [2] it was 120 nM; in the assay with phospho-AKT at S473, 3.8 nM; with p-4E-BP1 at T70, 0.3 nM; in assay [3], 1600 nM; in assay [4], 760 nM.

With `CNC(=O)c1cc(-c2cc[nH]n2)c2nc(-c3ccc(C4(N)CCC4)cc3)c(-c3ccccc3)n2n1` [Example 65, 2-[4-(1-Aminocyclobutyl)phenyl]-N-methyl-3-phenyl-8-(1H-pyrazol-3-yl)imidazo[1,2-b]pyridazine-6-carboxamide], the IC50 in assay [1] stood at 3.1 nM; in assay [2], 2.6 nM; in the assay on phospho-AKT at S473, 1.4 nM; in the assay with p-4E-BP1 at T70, 22 nM; in assay [3], 470 nM; in assay [4], 280 nM.

Regarding `CNC(=O)c1ccc2nc(-c3ccc(C4(N)CCC4)cc3)c(-c3ccccc3)n2n1` [Example 68, 2-[4-(1-Aminocyclobutyl)phenyl]-N-methyl-3-phenylimidazo[1,2-b]-pyridazine-6-carboxamide], the IC50 in assay [1] stood at 21 nM; in assay [2], 66 nM; in the assay on phospho-AKT at S473, 3.7 nM; in the assay with p-4E-BP1 at T70, 5300 nM; in assay [3], 1500 nM; in assay [4], 680 nM.

Consider `NC1(c2ccc(-c3nc4c(-c5cc[nH]n5)cc(C(=O)NCCO)nn4c3-c3ccccc3)cc2)CCC1` [Example 71, 2-[4-(1-Aminocyclobutyl)phenyl]-N-(2-hydroxyethyl)-3-phenyl-8-(1H-pyrazol-3-yl)imidazo[1,2-b]pyridazine-6-carboxamide], for which the IC50 came out at 11 nM in assay [1]; 20 nM in assay [2]; 92 nM in the assay on phospho-AKT at S473; 10000 nM with p-4E-BP1 at T70; 2000 nM in assay [3]; 780 nM in assay [4].

Turning to `COC(=O)CCc1ccnn2c(-c3ccccc3)c(-c3ccc(C4(N)CCC4)cc3)nc12` [Example 72, Methyl 3-{2-[4-(1-aminocyclobutyl)phenyl]-3-phenylimidazo[1,2-b]pyridazin-8-yl}propanoate], the half-inhibitory concentration (IC50) in assay [1] was determined as 310 nM; in assay [2] it was 580 nM; in the assay on phospho-AKT at S473, 1000 nM; in the assay on p-4E-BP1 at T70 it was 590 nM; in assay [3], 2200 nM; in assay [4], 3000 nM.
